For 22 compounds, IC50 results are on record in patent US10875851B2, “Factor XIIa inhibitors” (Merck Sharp & Dohme Corp., priority 2016, dated 2020).

The experiment deals with human Factor XIIa (Homo sapiens (Human), UniProt P00748). Put plainly: Factor XIIa Assay. It counts as biochemical. The conditions noted are these: purified human Factor XIIa 500 pM; substrate n-Acetyl-Lys-Pro-Arg-AFC 100 μM; pH 7.4; read-out: FXIIa IC50. The protocol: The effectiveness of a compound of the present invention as an inhibitor of Coagulation Factor XIIa can be determined using a relevant purified serine protease, and an appropriate synthetic substrate. The rate of hydrolysis of the chromogenic or fluorogenic substrate by the relevant serine protease was measured both in the absence and presence of compounds of the present invention. Assays were conducted at room temperature or at 37° C. […] A decrease in the rate of fluorescence change in the presence of inhibitor is indicative of enzyme inhibition. Such methods are known to one skilled in the art.
Chain of human Factor XIIa (P00748 373-615): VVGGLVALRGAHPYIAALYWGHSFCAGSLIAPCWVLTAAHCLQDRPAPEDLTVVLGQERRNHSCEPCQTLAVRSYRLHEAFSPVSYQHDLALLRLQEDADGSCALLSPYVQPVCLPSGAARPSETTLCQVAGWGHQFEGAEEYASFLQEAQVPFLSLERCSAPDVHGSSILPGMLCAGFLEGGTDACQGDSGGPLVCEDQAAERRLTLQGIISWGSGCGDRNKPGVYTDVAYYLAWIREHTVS
Factor XIIa activity determinations were made in 50 mM HEPES buffer containing 150 mM NaCl, 5 mM CaCl2, and 0.1% PEG 8000 (polyethylene glycol; JT Baker or Fisher Scientific) at pH 7.4. Determinations were made using purified human Factor XIIa at a final concentration of 500 pM (Sekisui Diagnostics) and the synthetic substrate, n-Acetyl-Lys-Pro-Arg-AFC, TFA salt (Sigma #C6608) at a concentration of 100 μM.
Times required to achieve equilibration between enzyme and inhibitor were determined in control experiments. Initial velocities of product formation in the absence (Vo) or presence of inhibitor (Vi) were measured. IC50 was determined as the concentration of I yielding Vi=Vo/2.
What is called IC50 is the concentration that gives 50% inhibition. Take `COc1cc(CNC(=O)[C@@H]2CN(C(=O)Oc3cccc4ccccc34)CCN2C(=O)[C@@H](CC2CCCCC2)NC2CCC3(CC2)CCN(Cc2ccccc2)C3)ccc1CN` (stereo partly drawn) [Example 28, naphthalen-1-yl (3S)-3-{[4-(aminomethyl)-3-methoxybenzyl]carbamoyl}-4-[N-(2-benzyl-2-azaspiro[4.5]dec-8-yl)-3-cyclohexyl-D-alanyl]piperazine-1-carboxylate]: the half-inhibitory concentration (IC50) is 3.9 nM.

Turning to `C[C@@H]1N=C(N2CCN(C(=O)[C@@H](CCCCNS(C)(=O)=O)NC3CCCCC3)[C@H](C(=O)NCc3cccs3)C2)O[C@H]1c1cccc(CN)c1` [Example 117, (2S)-4-{(4S,5S)-5-[3-(aminomethyl)phenyl]-4-methyl-4,5-dihydro-1,3-oxazol-2-yl}-1-[N^2-cyclohexyl-N^6-(methylsulfonyl)-D-lysyl]-N-(thiophen-2-ylmethyl)piperazine-2-carboxamide], the IC50 turned out to be 5.2 nM.

Take `O=C(NCc1cccs1)[C@@H]1CN(C(=O)Oc2cccc3ccc(O)nc23)CCN1C(=O)[C@@H](CC1CCCCC1)NC1CCCCC1` [Example 33, 2-hydroxyquinolin-8-yl (3S)-4-(N,3-dicyclohexyl-D-alanyl)-3-[(thiophen-2-ylmethyl)carbamoyl]piperazine-1-carboxylate]: the IC50 came to 20 nM.

For the compound `O=C(NCc1cccs1)[C@@H]1CN(C(=O)Oc2ccc(F)c3cccnc23)CCN1C(=O)[C@@H](CC1CCCCC1)NC1CCCCC1` [Example 32, 5-fluoroquinolin-8-yl (3S)-4-(N,3-dicyclohexyl-D-alanyl)-3-[(thiophen-2-ylmethyl)carbamoyl]piperazine-1-carboxylate], the IC50 was found to be 5.2 nM.

Regarding `C[C@@H]1N=C(N2CCN(C(=O)[C@H](N)CCCCN3CCCCC3)[C@H](C(=O)NCc3cccc(Cl)c3)C2)O[C@H]1c1cccc(Br)c1` [Example 167, (2S)-4-[(4S,5S)-5-(3-bromophenyl)-4-methyl-4,5-dihydro-1,3-oxazol-2-yl]-N-(3-chlorobenzyl)-1-(6-piperidin-1-yl-D-norleucyl)piperazine-2-carboxamide], the IC50 came out at 36.1 nM.

In the case of `CN(C)CCCC[C@@H](NC1CCC2(CC1)CCN(Cc1ccccc1)C2)C(=O)N1CCN(C2=NC(C)(C)CO2)C[C@H]1C(=O)NCc1cccs1` (stereo partly drawn) [Example 141, (2S)-1-[N^2-(2-benzyl-2-azaspiro[4.5]dec-8-yl)-N^6,N^6-dimethyl-D-lysyl]-4-(4,4-dimethyl-4,5-dihydro-1,3-oxazol-2-yl)-N-(thiophen-2-ylmethyl)piperazine-2-carboxamide], the IC50 was determined as 9.2 nM.

Take `C[C@@H]1N=C(N2CCN(C(=O)[C@@H](CCCCN)NC3CCC4(CC3)CCN(Cc3ccccc3)C4)[C@H](C(=O)NCc3cccs3)C2)O[C@H]1c1ccccc1` (stereo partly drawn) [Example 129, (2S)-1-[N^2-(2-benzyl-2-azaspiro[4.5]dec-8-yl)-D-lysyl]-4-[(4S,5S)-4-methyl-5-phenyl-4,5-dihydro-1,3-oxazol-2-yl]-N-(thiophen-2-ylmethyl)piperazine-2-carboxamide]: the IC50 turned out to be 13 nM.

On to `C[C@@H]1N=C(N2CCN(C(=O)[C@@H](CCCCN(C)C)NC3CCC4(CC3)CCN(Cc3ccccc3)C4)[C@H](C(=O)NCc3cccs3)C2)O[C@H]1c1ccccc1` (stereo partly drawn) [Example 135, (2S)-1-[N^2-(2-benzyl-2-azaspiro[4.5]dec-8-yl)-N^6,N^6-dimethyl-D-lysyl]-4-[(4S,5S)-4-methyl-5-phenyl-4,5-dihydro-1,3-oxazol-2-yl]-N-(thiophen-2-ylmethyl)piperazine-2-carboxamide], for which the IC50 came to 0.8 nM.

For `C[C@@H]1N=C(N2CCN(C(=O)[C@H](N)CCCCN3CCCCC3)[C@H](C(=O)NCc3cccs3)C2)O[C@H]1c1ccccc1` [Example 164, (2S)-4-[(4S,5S)-4-methyl-5-phenyl-4,5-dihydro-1,3-oxazol-2-yl]-1-(6-piperidin-1-yl-D-norleucyl)-N-(thiophen-2-ylmethyl)piperazine-2-carboxamide], the IC50 turned out to be 22.8 nM.

As to `Cc1ccc(OC(=O)N2CCN(C(=O)[C@H](N)CCCCN(C)C)[C@H](C(=O)NCc3cccs3)C2)c(Cl)c1C` [Example 98, 2-chloro-3,4-dimethylphenyl (3S)-4-(N^6,N^6-dimethyl-D-lysyl)-3-[(thiophen-2-ylmethyl)carbamoyl]piperazine-1-carboxylate], the 50% inhibitory concentration (IC50) stood at 7.2 nM.

For `CS(=O)(=O)N1CCC([C@@H](NC2CCCCC2)C(=O)N2CCN(C(=O)Oc3ccccc3Cl)C[C@H]2C(=O)NCc2cccs2)CC1` [Example 42, 2-chlorophenyl (3S)-4-{(2R)-2-(cyclohexylamino)-2-[1-(methylsulfonyl)piperidin-4-yl]acetyl}-3-[(thiophen-2-ylmethyl)carbamoyl]piperazine-1-carboxylate], the half-inhibitory concentration (IC50) came to 6 nM.

For `CN(C)CCCC[C@H](C(=O)N1CCN(C2=NC(C)(C)C(c3ccccc3)O2)C[C@H]1C(=O)NCc1cc2cnccc2s1)N(C)C` (stereo partly drawn) [Example 147, (2S)-4-(4,4-dimethyl-5-phenyl-4,5-dihydro-1,3-oxazol-2-yl)-1-(N^2,N^2,N^6,N^6-tetramethyl-D-lysyl)-N-(thieno[3,2-c]pyridin-2-ylmethyl)piperazine-2-carboxamide], the IC50 amounted to 44.1 nM.

As to `COc1cc(CNC(=O)[C@@H]2CN(C(=O)Oc3ccc4ccccc4c3Cl)CCN2C(=O)[C@@H](CC2CCCCC2)NC2CCCCC2)ccc1CN` [Example 44, 1-chloronaphthalen-2-yl (3S)-3-{[4-(aminomethyl)-3-methoxybenzyl]carbamoyl}-4-(N,3-dicyclohexyl-D-alanyl)piperazine-1-carboxylate], the 50% inhibitory concentration (IC50) turned out to be 2.7 nM.

For `O=C(NCc1cccs1)[C@@H]1CN(C(=O)Oc2ccccc2Cl)CCN1C(=O)[C@@H](CCCCN1CCCCC1)NC1CCC2(CC1)CCN(Cc1ccccc1)C2` (stereo partly drawn) [Example 88, 2-chlorophenyl (3S)-4-[N-(2-benzyl-2-azaspiro[4.5]dec-8-yl)-6-piperidin-1-yl-D-norleucyl]-3-[(thiophen-2-ylmethyl)carbamoyl]piperazine-1-carboxylate], the concentration for half-maximal inhibition (IC50) is 0.9 nM.

For `CN(C)CCCC[C@@H](NC1CCC2(CC1)CCN(Cc1ccccc1)C2)C(=O)N1CCN(C(=O)Oc2ccccc2Cl)C[C@H]1C(=O)NCc1cccs1` (stereo partly drawn) [Example 90, 2-chlorophenyl (3S)-4-[N^2-(2-benzyl-2-azaspiro[4.5]dec-8-yl)-N^6,N^6-dimethyl-D-lysyl]-3-[(thiophen-2-ylmethyl)carbamoyl]piperazine-1-carboxylate], the half-inhibitory concentration (IC50) is 0.7 nM.

`CN(C)CCCC[C@H](C(=O)N1CCN(C2=NC(C)(C)C(c3ccccc3)O2)C[C@H]1C(=O)NCc1ccc(CN)c(F)c1)N(C)C` (stereo partly drawn) [Example 148, (2S)-N-[4-(aminomethyl)-3-fluorobenzyl]-4-(4,4-dimethyl-5-phenyl-4,5-dihydro-1,3-oxazol-2-yl)-1-(N^2,N^2,N^6,N^6-tetramethyl-D-lysyl)piperazine-2-carboxamide]: the IC50 was 12.7 nM.

For the compound `CS(=O)(=O)NCCCC[C@@H](NC1CCC2(CC1)CCN(Cc1ccccc1)C2)C(=O)N1CCN(C(=O)Oc2ccccc2Cl)C[C@H]1C(=O)NCc1cccs1` (stereo partly drawn) [Example 54, 2-chlorophenyl (3S)-4-[N^2-(2-benzyl-2-azaspiro[4.5]dec-8-yl)-N~6~- (methylsulfonyl)-D-lysyl]-3-[(thiophen-2-ylmethyl)carbamoyl]piperazine-1-carboxylate], the half-inhibitory concentration (IC50) came out at 8.1 nM.

As to `Cc1ccc(OC(=O)N2CCN(C(=O)[C@@H](CCCCN3CCCCC3)NC3CCC4(CC3)CCN(Cc3ccccc3)C4)[C@H](C(=O)NCc3cccs3)C2)c(Cl)c1C` (stereo partly drawn) [Example 104, 2-chloro-3,4-dimethylphenyl (3S)-4-[N-(2-benzyl-2-azaspiro[4.5]dec-8-yl)-6-piperidin-1-yl-D-norleucyl]-3-[(thiophen-2-ylmethyl)carbamoyl]piperazine-1-carboxylate], the IC50 was determined as 0.2 nM.

For `CC1(C)N=C(N2CCN(C(=O)[C@H](N)CCCCN3CCCCC3)[C@H](C(=O)NCc3cc(Cl)ccc3-n3cnnn3)C2)OC1c1ccccc1` (stereo partly drawn) [Example 157, (2S)-N-[5-chloro-2-(1H-tetrazol-1-yl)benzyl]-4-(4,4-dimethyl-5-phenyl-4,5-dihydro-1,3-oxazol-2-yl)-1-(6-piperidin-1-yl-D-norleucyl)piperazine-2-carboxamide], the concentration for half-maximal inhibition (IC50) amounted to 54.8 nM.

Consider `Cc1cccc([C@@H]2OC(N3CCN(C(=O)[C@@H](CCCCNS(C)(=O)=O)NC4CCCCC4)[C@H](C(=O)NCc4cccs4)C3)=N[C@H]2C)c1` [Example 134, (2S)-1-[N^2-cyclohexyl-N^6-(methylsulfonyl)-D-lysyl]-4-[(4S,5S)-4-methyl-5-(3-methylphenyl)-4,5-dihydro-1,3-oxazol-2-yl]-N-(thiophen-2-ylmethyl)piperazine-2-carboxamide], for which the IC50 was 10.3 nM.

Turning to `CN(C)CCCC[C@H](C(=O)N1CCN(C2=NC(C)(C)C(c3ccccc3)O2)C[C@H]1C(=O)NCc1ccc(C(N)=O)cc1)N(C)C` (stereo partly drawn) [Example 155, (2S)-N-(4-carbamoylbenzyl)-4-(4,4-dimethyl-5-phenyl-4,5-dihydro-1,3-oxazol-2-yl)-1-(N^2,N^2,N^6,N^6-tetramethyl-D-lysyl)piperazine-2-carboxamide], the IC50 was 53.6 nM.

As to `CC1(C)N=C(N2CCN(C(=O)[C@H](N)CCCCN3CCCCC3)[C@H](C(=O)NCc3cccc(Cl)c3)C2)OC1c1ccccc1` (stereo partly drawn) [Example 156, (2S)-N-(3-chlorobenzyl)-4-(4,4-dimethyl-5-phenyl-4,5-dihydro-1,3-oxazol-2-yl)-1-(6-piperidin-1-yl-D-norleucyl)piperazine-2-carboxamide], the IC50 was found to be 52.3 nM.
